The numbers were not newly measured in patent publication US20250268885A1, “ORAL COMPOSITION COMPRISING NICOTINAMIDE” (CONARIS Research Institute AG, priority 2022, published 2025), which cites them from elsewhere.

The conditions of the data set: sources collected in PubChem.

Regarding `NC(=O)c1cccnc1` [Nicotinamide, nicotinamide], the “solubility relative to diclofenac sodium” value was “several orders of magnitude higher”.
